Structures can show the parent of a compound that is named as a salt.
Target: T1, CDK9/cyclin K (Homo sapiens, UniProt P50750)
T1 construct: purchased Invitrogen (ThermoFisher) PV4335
Test: TR-FRET Lanthascreen Eu Kinase Binding assay
Conditions: for Curve Class: classifies curves by quality of fit, efficacy and number of asymptotes; for Efficacy: difference between highest and lowest activity across concentration range; for Efficacy / Max Resp: in %; for AC50: concentration at which half maximal activity is observed, 7-point qHTS, read-out: AC50
Source text: The TR-FRET Lanthascreen Eu Kinase Binding assay for CDK9/cyclin K was purchased from ThermoFisher and performed as per manufacturer instructions.

T1 sequence (P50750 whole entry): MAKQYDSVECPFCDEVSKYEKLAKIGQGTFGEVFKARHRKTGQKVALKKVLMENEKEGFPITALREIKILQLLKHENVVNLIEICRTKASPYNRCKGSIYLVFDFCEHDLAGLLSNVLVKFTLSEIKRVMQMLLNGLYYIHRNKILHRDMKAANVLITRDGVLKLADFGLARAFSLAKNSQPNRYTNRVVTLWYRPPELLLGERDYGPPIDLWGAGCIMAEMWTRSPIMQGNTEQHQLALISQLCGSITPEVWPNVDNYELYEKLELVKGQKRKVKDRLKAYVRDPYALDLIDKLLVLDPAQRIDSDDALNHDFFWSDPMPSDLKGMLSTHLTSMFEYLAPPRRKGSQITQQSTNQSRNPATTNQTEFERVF
T1 sequence (O75909 whole entry partner): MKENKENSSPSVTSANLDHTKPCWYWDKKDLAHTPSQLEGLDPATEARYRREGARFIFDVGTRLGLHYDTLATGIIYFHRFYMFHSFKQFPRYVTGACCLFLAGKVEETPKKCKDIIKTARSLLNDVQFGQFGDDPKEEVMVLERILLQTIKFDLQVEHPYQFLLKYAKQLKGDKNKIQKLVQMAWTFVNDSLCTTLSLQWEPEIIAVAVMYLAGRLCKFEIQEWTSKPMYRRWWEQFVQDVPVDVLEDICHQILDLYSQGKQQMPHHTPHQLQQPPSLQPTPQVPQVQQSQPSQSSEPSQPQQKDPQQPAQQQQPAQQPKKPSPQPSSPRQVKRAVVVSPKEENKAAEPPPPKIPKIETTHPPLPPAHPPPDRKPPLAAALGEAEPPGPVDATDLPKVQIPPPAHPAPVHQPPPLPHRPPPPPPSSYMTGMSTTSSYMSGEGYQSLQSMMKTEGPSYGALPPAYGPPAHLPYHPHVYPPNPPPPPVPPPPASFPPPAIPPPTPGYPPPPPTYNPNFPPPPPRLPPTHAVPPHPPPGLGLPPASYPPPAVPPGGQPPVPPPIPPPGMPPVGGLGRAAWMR

Row | Structure (SMILES) | Curve Class | Efficacy | Max Resp | AC50 [µM] | Log AC50 (M) (logarithm of AC50)
1 | CC(C)c1nn(-c2c(Cl)cccc2Cl)c2nc(Cc3ccc(OCCO)cc3)[nH]c(=O)c12 [Cdk/Crk Inhibitor] | -1.2 | -57.1 | -99.2 | – | –
2 | CN1CCN(Cc2ccc(Nc3ncc(Cl)c(Nc4ccccc4S(=O)(=O)N(C)C)n3)cc2)CC1 [TP-0903] | -1.2 | -74.0 | -96.9 | 0.0687 | –
3 | COc1ccc(CNc2nc(N(CCO)CCO)nc3c2ncn3C(C)C)cc1 [CVT-313] | -1.1 | -101.1 | -99.9 | 0.532 | –
4 | N#C/C(=C\c1ccc(O)c(O)c1)C(=O)NCCCNC(=O)/C(C#N)=C/c1ccc(O)c(O)c1 [Tyrphostin AG 537] | -1.1 | -98.0 | -83.8 | – | –
5 | C[S+](=O)([O-])N1CCC(NC(=O)c2[nH]ncc2NC(=O)c2c(Cl)cccc2Cl)CC1 [NVP-LCQ195] | -1.2 | -72.2 | -98.8 | – | –
6 | Cc1ccc(C(N)=O)cc1Nc1nccc(-c2cn(C(C)C)c3cnccc23)n1 [NCGC00263020-01] | -1.1 | -90.3 | -99.8 | – | –
7 | CC(=O)N1CCN(C(=O)Cc2ccc(Nc3ncc(F)c(Nc4ccc(C(=O)Nc5ccccc5Cl)cc4)n3)cc2)CC1 [Aurora A inhibitor II] | -1.1 | -82.6 | -83.7 | 0.947 | -6.0
8 | Oc1cc(CNC(=S)/C=C/c2cc(O)c(O)c(Br)c2)cc(O)c1O [NT 157] | -1.4 | -60.3 | -8.3 | – | –
9 | Nc1n[nH]c(N)c1N=Nc1ccc(O)cc1 (stereo in doubt) [CAY10574] | -1.1 | -84.6 | -95.5 | – | –
10 | CN(C)CCCn1cc(C2=C(c3c[nH]c4ccccc34)C(=O)NC2=O)c2ccccc21 [GF109203X] | -1.2 | -69.1 | -74.0 | – | –
11 | CCCCNc1ncc(C(=O)NCc2ccc(-n3ccnc3)cc2)c(NC2CCC(O)CC2)n1 (stereo in doubt) [UNC2881] | -1.1 | -93.2 | -99.2 | – | –
12 | CC(C)n1nc(-c2ccc(NC(=O)Nc3cccc(C(F)(F)F)c3)cc2)c2c(N)ncnc21 [AD57 (hydrochloride)] | -1.1 | -86.8 | -79.5 | – | –
13 | O=C1Cc2c([nH]c3ccc(Br)cc23)-c2ccccc2N1 [Kenpaullone] | -1.1 | -80.5 | -37.7 | 0.336 | –
14 | CC(C)[C@H](CO)Nc1nc(Nc2cccc(Cl)c2)c2ncn(C(C)C)c2n1 [Purvalanol A] | -1.1 | -79.6 | -72.7 | – | –
15 | CN[C@@H]1C[C@H]2O[C@@](C)([C@@H]1OC)n1c3ccccc3c3c4c(c5c6ccccc6n2c5c31)C(=O)N[C@H]4O [UCN-01] | -1.1 | -83.5 | -93.0 | – | –
16 | CC(=O)c1c(C)c2cnc(Nc3ccc(N4CCNCC4)cn3)nc2n(C2CCCC2)c1=O [Palbociclib (PD-0332991) HCl] | -1.1 | -92.3 | -91.0 | – | –

Second part, led by results:

Row | Curve Class | Efficacy | Max Resp | Structure (SMILES) | AC50 [µM] | Log AC50 (M) (logarithm of AC50)
17 | -1.1 | -99.4 | -92.5 | O=C1Nc2ccc3ncsc3c2/C1=C/Nc1ccc([S+](=O)([O-])Nc2ccccn2)cc1 [GW8510] | – | –
18 | -1.1 | -83.3 | -91.2 | COCCOc1ccc2c(c1)ncn2-c1ccc2cccc(N3CCC(N)CC3)c2n1 [CP-673451] | 0.15 | –
19 | -1.1 | -85.8 | -96.7 | N#CCNC(=O)c1ccc(-c2ccnc(Nc3ccc(N4CCOCC4)cc3)n2)cc1 [CYT-387] | – | –
20 | -1.1 | -92.0 | -90.5 | Cc1nc(N)sc1-c1ccnc(Nc2ccc(N3CCOCC3)cc2)n1 [CYC-116] | – | –

Source: publication PMC6013488, “A widely-applicable high-throughput cellular thermal shift assay (CETSA) using split Nano Luciferase” (Scientific Reports, 2018)
